Test [1] relates to AR. Nature of the test: AR reporter gene assay with gelsolin (Example 5). As to conditions: 100 nM HF; normal 10% FCS medium; no gelsolin. The class given is cell-based, human. From the text:
468. A C-terminal fragment of gelsolin (aa 281-731) was isolated from pACT2 encoding gelsolin, and inserted into pSG5-Gal4 DNA-binding domain (DBD) (constructed by Dr. R. Nakao). AR fragment (aa 36-918) was inserted into pCMX-VP16 (a gift from Dr. D. Chen). For gelsolin expression vector, a full-length cDNA fragment of gelsolin from LKCG, a gift from Dr. D. Kwiatkowski (Northwestern University, Evanston, Ill.), was inserted into pSG5. Dr. M. L. Lu (Harvard Medical School, Boston, Mass.) provided the p (ARE) 4-luciferase (LUC) plasmid. Dr. A. Mizokami (University of Kanazawa, Kanazawa, Japan) provided the pGL3-PSA6.0LUC plasmid. The expression plasmids of AR peptides were constructed by inserting the PCR amplified cDNA fragment of AR DBD into pFlag-CMV (Sigma) and the fragments of AR LBD into pCDNA-flag plasmid. Transfection protocol and reporter gene assay were described in previous report (Ting et al. Proc Natl Acad Sci USA 99, 661-666 (2002)).
(In a reporter assay the amount or activity of a reporter protein is the signal.)

A further test deals with wtAR and gelsolin (Homo sapiens, UniProt P10275). The following applies: COS-7 cells; T 10 nM; HF 1 μM.
The next test concerns the target mtARt877s and gelsolin (Homo sapiens, UniProt P10275, T878S). The following applies: 10 μM HF, 100 nM DHT, 1 μM E2, 1 μM P; compared to EtOH. From the text:
Y190 yeast cells were transformed with pAS2-mtARt877s (aa 595-918) and pATC2-gelsolin (aa 281-731).

Test [2] deals with AR. The experiment in a line: AR transactivation reporter assay (CAT/LUC) with ARA267 (Example 4). It is filed as cell-based, human. The protocol: (§1) 444. Human prostate cancer cell line PC-3 and DU145, lung cancer cell line H1299, and hepatoma cell line HepG2 were grown in DMEM-10% FCS. For transfection the cells were plated in 60-mm dishes and experiments performed by modified calcium phosphate technique as previously described (Yeh et al. Proc. Natl. Acad. Sci. U.S.A. (1996) 93, 5517-5521). After incubation for 24 h, the cells were treated with steroid hormones for another 24 h, then harvested for the chloramphenicol acetyltransferase (CAT) assay. Mouse mammary tumor virus-(MMTV)-CAT reporter gene was used to measure AR transcription activity, and a β-Galactosidase expression gene (pCMV-O-gal) was incorporated into the experiments as an internal control (Yeh et al. Proc. Natl. Acad. Sci. U.S.A. (1996) 93, 5517-5521). CAT activity was visualized by a PhosphorImager (Molecular Dynamics) and quantitated by IMAGEQUANT software (molecular Dynamics). For Luciferase (LUC) assay, pG5-LUC, pMMTV-LUC or estrogen response element (ERE)-LUC plasmid was used as the reporter gene and SV40-PRL (promega) was used as an internal control. Dual-luciferase Reporter 1000 Assay System (promega) was employed to measure the luciferase activity.

Another test has as its system PSA. The experiment in a line: Western blot of PSA in LNCaP cells transfected with ARA267. The class given is cell-based, human. The following applies: 10 nM DHT. The protocol:
447. LNCaP cells were transfected with pSG5ARA267 and pSG5 vector by Superfect (Qiagen) respectively. […] The cells were harvested and lysed following the protocol from Santa Cruz Biotechnology. In each sample, 50 μg whole-cell lysis proteins were separated on 10% SDS-polyacrylamide gel. After transfering, the membrane was blotted with polyclonal AR antibody (NH27), PSA antibody (Dako Corporation), and β-actin antibody (Santa Cruz Biotechnology). The bands were developed with an alkaline phosphatase detection kit (Bio-Rad).
(In general: Immunoblotting shows a protein as a band on a membrane.)

A further test concerns the target T1, ER (Homo sapiens, UniProt P03372).
T1 sequence (P03372 1-595): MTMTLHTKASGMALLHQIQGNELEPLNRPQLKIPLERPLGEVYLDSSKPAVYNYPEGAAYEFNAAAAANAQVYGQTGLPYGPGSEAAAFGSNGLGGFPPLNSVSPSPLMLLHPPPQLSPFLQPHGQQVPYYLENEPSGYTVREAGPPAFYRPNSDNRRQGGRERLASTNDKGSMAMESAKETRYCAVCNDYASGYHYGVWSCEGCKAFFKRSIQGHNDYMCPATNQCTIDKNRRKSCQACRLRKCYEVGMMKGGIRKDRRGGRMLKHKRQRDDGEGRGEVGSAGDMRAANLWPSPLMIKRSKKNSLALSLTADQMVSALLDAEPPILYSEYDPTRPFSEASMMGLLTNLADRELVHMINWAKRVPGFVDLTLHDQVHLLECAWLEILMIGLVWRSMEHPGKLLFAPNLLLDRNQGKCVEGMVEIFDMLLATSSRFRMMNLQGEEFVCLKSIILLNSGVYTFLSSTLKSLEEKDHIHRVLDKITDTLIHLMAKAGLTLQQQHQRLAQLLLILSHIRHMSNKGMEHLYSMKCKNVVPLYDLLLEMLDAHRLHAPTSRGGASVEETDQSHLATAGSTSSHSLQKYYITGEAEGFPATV
The experiment in a line: ER transactivation luciferase assay with ARA267. It is filed as cell-based. Further details: expressed in transfected cells; host or cells: DU145, HepG2, PC3. As to conditions: HepG2 cells. The protocol:
(§2) 31. […] The luciferase activity of each receptor without ARA267 and ligands was set as one fold. All values represent the mean SD of three independent experiments.
as §1

Another test deals with T2, GR (Homo sapiens, UniProt P04150).
T2 sequence (P04150 1-777): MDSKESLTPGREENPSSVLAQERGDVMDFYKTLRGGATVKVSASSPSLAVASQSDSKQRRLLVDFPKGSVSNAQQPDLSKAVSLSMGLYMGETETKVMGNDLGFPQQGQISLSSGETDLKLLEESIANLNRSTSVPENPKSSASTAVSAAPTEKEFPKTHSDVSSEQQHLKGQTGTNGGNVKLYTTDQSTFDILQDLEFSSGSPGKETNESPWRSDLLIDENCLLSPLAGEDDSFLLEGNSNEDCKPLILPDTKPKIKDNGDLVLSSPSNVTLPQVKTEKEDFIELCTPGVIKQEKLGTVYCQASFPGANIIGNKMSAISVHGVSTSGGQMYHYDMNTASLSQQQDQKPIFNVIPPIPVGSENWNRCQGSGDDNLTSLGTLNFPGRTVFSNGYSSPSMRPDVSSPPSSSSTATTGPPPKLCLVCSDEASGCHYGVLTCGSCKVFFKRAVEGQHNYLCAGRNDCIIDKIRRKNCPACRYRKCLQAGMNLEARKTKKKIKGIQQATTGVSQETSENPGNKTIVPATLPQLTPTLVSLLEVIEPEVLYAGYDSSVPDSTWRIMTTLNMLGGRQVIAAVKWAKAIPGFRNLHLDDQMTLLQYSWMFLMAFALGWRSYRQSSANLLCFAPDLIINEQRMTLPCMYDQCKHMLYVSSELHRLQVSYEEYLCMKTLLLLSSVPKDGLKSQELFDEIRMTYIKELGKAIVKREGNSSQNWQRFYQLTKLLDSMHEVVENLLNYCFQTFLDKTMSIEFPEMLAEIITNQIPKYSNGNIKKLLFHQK
The experiment in a line: GR transactivation luciferase assay with ARA267. It is filed as cell-based. Further details: expressed in transfected cells; host or cells: DU145, PC-3, HepG2. The following applies: HepG2 cells. The protocol: as §2, §1

This is an account of results in patent US20060270591A1, “Androgen receptor coregulators” (priority 2002, published 2006).

As to `CC(C)(O)C(=O)Nc1ccc([N+](=O)[O-])c(C(F)(F)F)c1` [HF, hydroxyflutamide], the “inhibition of AR transactivation” value in the test on AR [1] worked out at 80%. In addition, the “interaction between wtAR and gelsolin” value at wtAR and gelsolin is on record as “induced significant interaction”. Also, the “interaction between mtARt877s and gelsolin (β-gal activity)” value on mtARt877s and gelsolin was “promoted significant interaction”.
As to “ARA267: AR coregulator of 2427 amino acids containing a SET domain, calculated molecular weight 267 kD”, the “effect on AR transactivation” value with AR [2] (10 nM E2) is “marginal effects”. For the same molecule, in the test with AR [2] (PC-3 cells, MMTV-CAT), the “effect on DHT-mediated AR transactivation” value is recorded as “enhance DHT-mediated AR transactivation in a dose-dependent manner”. In the test with PSA, the “effect on DHT-induced PSA protein expression” value is reported as “enhance DHT-induced PSA protein expression”. Moreover, in the test with ER, the “effect on the transactivation of ER” value is recorded as “marginal effect”. Moreover, in the test with GR, the “effect on the transactivation of GR” value is given as “marginal effect”.
